Test results from patent publication US6515010B1 (SmithKline Beecham Corporation, priority 1999, dated 2003).
Converted amounts (≈) assume the structure as drawn.

Experiments:
physchem [1] = conditions: 25 °C, water, thermodynamic from solid
physchem [2] = assay: physchem
[3] = pKa of carvedilol free base; type: physicochemical
[4] = Aqueous solubility at 25° C. of carvedilol and its salt forms; conditions: water

solubility at 1 hr (physchem [1]) [µg/mL]	solubility at 24 hr (physchem [1]) [µg/mL]	solubility (physchem [2]; pH 4, aqueous buffer) [µg/mL]	solubility (physchem [2]; pH 9, aqueous buffer) [µg/mL]	pKa [3]	Compound	aqueous solubility (in words) [4]	Aqueous Solubility ([4]; time 0.5 hr) [µg/mL]	Aqueous Solubility ([4]; time 1 hr) [µg/mL]	Aqueous Solubility ([4]; time 4 hr) [µg/mL]	Aqueous Solubility ([4]; time 70 hr) [µg/mL]
9.8 (≈ 24.1 µM)	11.6 (≈ 28.5 µM)	~200 (≈ 492 µM)	< 1	7.6	COc1ccccc1OCCNCC(O)COc1cccc2[nH]c3ccccc3c12 (stereo not shown) [Carvedilol]	–	–	–	–	–
–	–	–	–	–	Hydrochloride	poorly soluble in water	1650	1630	1370	1060
